How the values were obtained:
[1] = test system: B cells; test: B cell apoptosis by intracellular active caspase-3 staining; assay type: cell-based; conditions: for percentage of caspase-3 positive B cells: day 7, mean±SD
Experimental: FIG. 5E-F show corresponding summarized data (n=8) for the frequency of caspase-3^+CD38^+/− non-plasmablasts (FIG. 5E) and caspase-3^+CD20^lowCD38^++ plasmablasts (FIG. 5F) at Day 7. […] Error bars are mean±SD. P values were determined with one-way ANOVA with Geisser-Greenhouse's multiple comparisons test.
B cells were stimulated to differentiate into plasmablasts using a two-phase cell culture protocol as previously described. Briefly, B cells were seeded at 4×10^5 cells/mL in 24-well plates and activated during 4 days with 50 ng/mL recombinant human soluble CD40L (R&D Systems), 2.5 μg/mL CpG oligodeoxynucleotide (ODN) 2006 (Amidogen or Cayla Invivogen), 2 μg/mL F(ab′)2 fragment goat anti-human IgA+IgG+IgM (H+L) polyclonal Abs (anti-BCR) (Jackson ImmunoResearch Laboratories), and 50 U/mL human IL-2 (SARL Pharmaxie or Novartis). Day 4-activated B cells were washed and cultured at the same concentration for three additional days in a fresh medium containing 50 U/mL human IL-2, 10 ng/mL human IL-4 (R&D Systems), and 10 ng/mL human IL-10 (R&D Systems) to induce B cell differentiation into plasmablasts. At days 0, 4 and 7, B cells were stained with viability marker LIVE/DEAD Fixable Aqua Dead Cell Stain (Thermofisher) to identify dead cells, followed by extracellular staining with anti-human mAbs: anti-CD20 FITC, anti-IgD BUV395, anti-CD27 BUV737, anti-CD38 BV605 (all from BD Biosciences) and analyzed by flow cytometry (FACSCelesta™, BD Biosciences). In some experiments, B cell apoptosis was evaluated by intracellular active caspase-3 staining (Caspase-3-PE, BD Biosciences).

[2] = test system: CD4+CD25- T cells; test: Anti-CD3/CD28-induced T-cell proliferation (CPD); assay type: cell-based; conditions: Homo sapiens, 72 h, 3 days
Experimental: FIGS. 7A-P are a combination of graphs and FACS plots showing that targeting the BOB1-OCT(s) interaction by compound 005 inhibits dose-dependently T-cell proliferation and selectively suppresses memory Th17 responses. Representative offset histogram overlays showing median fluorescence intensity of cell proliferation dye (CPD) in anti-CD3/CD28-activated CD4^+CD25^− T cells cultured without BOB1 inhibitor (DMSO-treated control) or in the presence of 5, 10 or 15 μM compound 005, as indicated (FIG. 7A). The percentage of proliferating cells is indicated for one representative donor. […] FIG. 7C-O show the expression of Th1-(IFNG (FIG. 7C), TNF (FIG. 7D), IL-2 (FIG. 7E) and TBX21 (FIG. 7F)), Th2-(IL-4 (FIG. 7G) and GATA3 (FIG. 7H)), Th17-(IL-17A (FIG. 7I), IL-17F (FIG. 7J), IL-21 (FIG. 7K), IL-22 (FIG. 7L) and RORC (FIG. 7M)), and Treg-(IL-10 (FIG. 7N) and FOXP3 (FIG. 7O)) associated cytokines and transcription factors during recall (memory) T cell responses in vitro. […] Each dot represents a biological replicate. Bars indicate the mean±SD. * P<0.05, ** P<0.01, **** P<0.0001.
Cells were resuspended in PBS and labelled with Cell Proliferation Dye eFluor 450 (CPD) (eBioscience) at a final concentration of 10 μM at 37° C. for 10 min, kept on ice for 5 min, and washed twice with 10 mL of ice-cold RPMI 1640 10% FCS medium.
To confirm and extend the observation that targeting the BOB1-OCT(s) interaction suppresses effector T cell proliferation efficiently, we cultured CD4^+CD25^− T cells in the presence of anti-CD3/CD28 microbeads and different concentrations of compound 005 for 3 days. […] OCT1 is constitutively expressed in T cells, whereas BOB1 is induced only after activation. […] Therefore, we next determined the consequences of inhibition of the OCT1-BOB1 complex on the expression of Th1-, Th2-, and Th17-associated cytokines during primary and secondary (memory) T-cell responses in vitro (FIGS. 7C-O). […]

[3] = target: T1, POU domain of OCT1 (POU1) (Homo sapiens, UniProt P14859); test: Kd measurement (fluorescence emission spectra, Hill's coordinates); assay type: binding; conditions: 298.15 K
T1 construct: 6xHis (pET28 N-terminal histidine tag) (N); made in house; host or cells: E. coli BL21
T1 sequence (P14859 280-438): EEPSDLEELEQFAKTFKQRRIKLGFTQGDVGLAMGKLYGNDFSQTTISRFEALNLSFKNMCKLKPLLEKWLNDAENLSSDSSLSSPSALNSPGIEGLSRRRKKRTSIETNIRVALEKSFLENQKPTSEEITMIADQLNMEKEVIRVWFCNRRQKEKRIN

Cc1ccc(NC(=O)C2CN(c3nc(NCCCc4ccc(F)cc4)nc(NCCC(=O)O)n3)c3ccccc3O2)cc1Cl (stereo not shown) [compound 005, 3-((4-(2-((3-chloro-4-methylphenyl)carbamoyl)-2,3-dihydro-4H-benzo[b][1,4]oxazin-4-yl)-6-((3-(4-fluorophenyl)propyl)amino)-1,3,5-triazin-2-yl)amino)propanoic acid]
percentage of caspase-3 positive B cells ([1]; 5 μM): 33.9±15.5%
percentage of caspase-3 positive B cells ([1]; 10 μM): 25.6±7.5%
percentage of caspase-3 positive B cells ([1]; 15 μM): 30.8±7.9%
frequencies of caspase-3 positive cells ([1]; activation phase (days 0-4), even at high concentrations): did not affect
susceptibility to apoptosis of CD20loCD38hi plasmablast and CD20+CD38+/- non-plasmablast populations ([1]; day 7): reduced susceptibility to apoptosis
inhibition at 5 µM ([2]; 5 μM): 18.8 ± 12.5%
inhibition at 10 µM ([2]; 10 μM): 50.5 ± 10.2%
inhibition at 15 µM ([2]; 15 μM): 77.5 ± 9.2%
Kd ([3]; POU1 3 μM): 1 nM
ΔG (change of Gibb's energy) of binding ([3]; calculated from Kb): negative value
